Assay results from publication PMC10303900, “Discovery of a New Chalcone-Trimethoxycinnamide Hybrid with Antimitotic Effect: Design, Synthesis, and Structure—Activity Relationship Studies” (Pharmaceuticals, 2023).
Where two headings read alike, the source gives them in different places.

Legend:
A375-C5 = experiment: Sulforhodamine B (SRB) growth inhibition assay, melanoma cells; type: cell-based; conditions: Homo sapiens, 48 h
Procedure: (§1) A sulforhodamine B (SRB) assay was performed to evaluate the in vitro growth inhibitory activity of all synthesized hybrids, as well as intermediates in the human tumor cell lines of melanoma (A375-C5), breast adenocarcinoma (MCF-7), and colorectal carcinoma (HCT116), as well as on the non-tumor Human Pulmonary Alveolar Epithelial cell line (HPAEpiC). The concentration inducing 50% cell growth inhibition (GI50), was calculated. […] The overall results prompt us to further investigate the mechanism behind the cytotoxic activities of compounds 6, 7, and 13 in colorectal tumor cells. Moreover, in silico studies were performed, aiming to screen for drug-likeness.
(§2) A375-C5 (melanoma) and MCF-7 (breast adenocarcinoma) cell lines were obtained from the European Collection of Cell Culture, UK, and were grown in RPMI-1640 medium (Roswell Park Memorial Institute, Biochrom, Cambridge, UK) with 5% inactivated FBS (fetal bovine serum, Biochrom). HCT-116 (colon adenocarcinoma) cells were grown in DMEM medium (Dulbecco’s Modified Eagle’s, Biochrom) with 5% inactivated FBS. The non-tumor human pulmonary alveolar epithelial cells (HPAEpiC) were obtained from ScienCell Research Laboratories and grown in DMEM medium supplemented with 10% FBS and 1% non-essential amino acids (Sigma-Aldrich Co., Saint Louis, MO, USA). All cell lines were maintained in a humidified incubator (Hera Cell, Heraeus, Hanau, Germany) at 37 °C and with 5% CO2, and cell viability was regularly monitored using the exclusion trypan blue dye.
(§3) A total of 5.0 × 10^4 A375-C5, MCF-7, and HCT-116 cells, or 6.0 × 10^4 HPAEpiC cells were seeded in 96-well plates and incubated at 37 °C and 5% CO2 to allow for cell attachment. After 24 h, cells were treated with two-fold serial dilutions of test compounds (0–150 µM), or with DMSO as the compound solvent. In parallel, cells in a time-zero (T0) plate, without treatment, were fixed with 50% (m/v) trichloroacetic acid (TCA, Merck Millipore, Darmstadt, Germany), for 1 h at 4 °C, and then washed with distilled water and left to dry. Forty-eight hours after compound treatment, cells were fixed with 50% TCA and stained with SRB (Sigma-Aldrich Co., Ltd., Gillingham, UK) for 30 min at room temperature, followed by 5 rounds of washing with 1% (v/v) acetic acid (Merck Milli-pore, Darmstadt, Germany). SRB–protein complexes were then solubilized with […] Tris buffer (Sigma-Aldrich Co., Ltd., Gillingham, UK) for 30 min, and the absorbance was measured at 515 nm in a microplate reader (Biotek Synergy 2, BioTek Instruments, Inc., Winooski, VT, USA). A dose-response curve was obtained for each cell line, and the concentration that caused 50% cell growth inhibition (GI50) was calculated.

MCF-7 = experiment: SRB growth inhibition assay, breast adenocarcinoma cells; type: cell-based; conditions: Homo sapiens, MCF7, 48 h
Procedure: as §1, §2, §3

HCT116 (HCT116 p53+/+) = experiment: SRB growth inhibition assay, colorectal carcinoma cells; type: cell-based; conditions: Homo sapiens, HCT-116
Procedure: as §1, §2, §3

HPAEpiC = experiment: SRB growth inhibition assay, non-tumor pulmonary alveolar epithelial cells; type: cell-based; conditions: Homo sapiens, Epithelial cell, 48 h
Procedure: as §1, §2, §3

[1] = tested on: A375-C5, MCF-7 and HCT116 cell lines; experiment: SRB growth inhibition, range over the tumor cell lines of Table 1; type: cell-based; conditions: Homo sapiens; SAR discussion, values of Table 1
Procedure: Considering the antiproliferative effects on tumor cells of all the studied compounds (Table 1), some SAR considerations may be undertaken (Figure 2). […] Nevertheless, this effect is not observed for the flavone derivatives 15 and 16. […] Additionally, with the screening of the synthetic intermediates, some conclusions can also be inferred (Figure 2).
as §3

HCT116 p53−/− = experiment: SRB growth inhibition assay, p53 knocked-out colorectal cells; type: cell-based, human
Procedure: as §3

p53–MDM2 interaction = target: T1, p53–MDM2 interaction (Homo sapiens, UniProt Q00987); experiment: Yeast targeted screening assay of p53–MDM2 interaction; conditions: 10 μM, yeast cell-based assay, data not shown
T1 construct: expressed in transfected cells; host or cells: Saccharomyces cerevisiae strain CG379
T1 sequence (Q00987 whole entry): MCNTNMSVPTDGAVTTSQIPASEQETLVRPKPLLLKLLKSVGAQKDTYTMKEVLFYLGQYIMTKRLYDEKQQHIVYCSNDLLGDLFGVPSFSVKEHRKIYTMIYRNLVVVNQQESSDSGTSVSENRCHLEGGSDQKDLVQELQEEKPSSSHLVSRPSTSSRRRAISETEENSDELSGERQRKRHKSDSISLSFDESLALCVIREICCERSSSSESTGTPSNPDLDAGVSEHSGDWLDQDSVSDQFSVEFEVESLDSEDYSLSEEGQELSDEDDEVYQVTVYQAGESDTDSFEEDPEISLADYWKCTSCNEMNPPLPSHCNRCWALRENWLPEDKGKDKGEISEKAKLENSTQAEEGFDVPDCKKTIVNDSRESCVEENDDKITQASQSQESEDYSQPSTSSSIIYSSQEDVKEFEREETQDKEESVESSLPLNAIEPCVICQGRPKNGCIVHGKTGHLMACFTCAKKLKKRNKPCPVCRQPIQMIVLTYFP
Procedure: However, since CM-M345 (1) has been previously reported as a p53-MDM2 inhibitor by our research group, the effect of 10 μM of compounds 6, 7, and 13 on the p53–MDM2 interaction was analyzed using yeast cell-based assays.
Saccharomyces cerevisiae (strain CG379) expressing human wt p53 alone and combined with human MDM2 were obtained in previous works. For the expression of human proteins (routinely grown in minimal selective medium), cells were diluted to 0.05 OD600 in selective induction medium containing 2% (w/w) galactose, 1% (w/w) raffinose, 0.7% (w/w) yeast nitrogen base without amino acids from Difco (Quilaban, Sintra, Portugal), and all the amino acids required for yeast growth ([…]) except leucine and tryptophan. Yeast cells were incubated at 30 °C under continuous orbital shaking (200 rpm) with 10 µM compounds or 0.1% DMSO only, for approximately 42 h (time required by the control yeast, co-transformed with the empty vectors and incubated with DMSO only, to achieve 0.4 OD600). Yeast growth was analyzed by counting the number of colony-forming units (CFU) after 2 days of incubation at 30 °C on Sabouraud Dextrose Agar from Liofilchem (Frilabo, Porto, Portugal).

HCT116 cells [2] = experiment: Apoptosis detection via flow cytometry (Annexin V-FITC/PI); type: cell-based, human; conditions: HCT116, 48 h, vs untreated or DMSO
Procedure: Double labeling with annexin V-FITC and propidium iodide dyes was used to detect cells going through apoptotic events, using a flow cytometer in order to obtain insights into the mechanism by which compounds 6, 7, and 13 generate antiproliferative activity against colorectal carcinoma cells. For that, HCT116 cells were exposed to each compound for 48 h.
To evaluate apoptotic cell death, the “Annexin V-FITC Apoptosis Detection Kit” (eBioscience, Vienna, Austria) was used according to the manufacturer’s instructions. Briefly, 1.2 × 10^5 cells/well were seeded into 6-well plates, and 24 h later, cells were treated with compounds 6, 7, and 13. After 48 h, floating and adherent cells were collected, pelleted via centrifugation (1000 rpm, 5 min), and suspended in binding buffer. Annexin V-FITC was added and incubated for 10 min, protected from light. Cells were washed and resuspended in binding buffer, and 20 μg/mL of propidium iodide (PI) was added. Fluorescence was assessed using the BD Accuri™ C6 Plus flow cytometer (BD Biosciences, Qume Drive, San Jose, CA, USA), and the data were analyzed with the BD Accuri TM C6 Plus software (version 1.0.27.1, San Jose, CA, USA). At least 20,000 events per sample were collected.

HCT116 cells [3] = experiment: Mitotic arrest / mitotic index by phase-contrast microscopy; type: cell-based, human; conditions: HCT116, 24 h, phase contrast microscopy
Procedure: Disruption of cell cycle progression is considered one of the most common cytotoxic mechanisms of anticancer drugs. Moreover, the antimitotic effect of BP-M345 (2) has been previously reported. Therefore, compounds 6, 7, and 13 were tested for their capability to induce cell cycle arrest. HCT116 cells were exposed for 24 h to the compounds and then analyzed using phase contrast microscopy for morphological changes. Untreated and dimethyl sulfoxide (DMSO; solvent)-treated cells were used as negative controls. Cell exposure to nocodazole, an antimitotic agent, was used as a positive control. […] We thus calculated the mitotic index (MI), and observed a significant increase in MI in 7-treated cells (22.76 ± 4.30%) compared to the untreated (12.68 ± 1.98%) or DMSO-treated (12.81 ± 1.45%) (Figure 4c).
A total of 1.2 × 10^5 HCT-116 cells were grown in six-well dishes and treated for 24 h with 3.26 µM of compound 7. Cells treated with 1 µM nocodazole were used as a positive control for antimitotic activity. Untreated cells and cells treated with DMSO were included to exclude the cytotoxicity of the compound solvent. Mitotic index, and the percentage of mitotic cells over the total cell population were determined via cell-rounding under phase-contrast microscopy from at least ten random microscope fields.
For phase contrast microscopy images, a Nikon TE 2000-U microscope (Nikon, Amsterdam, The Netherlands) with a 10× objective was used, coupled to a DXM1200F digital camera with Nikon ACT-1 software (Melville, NY, USA). For fluorescence images, an Axio Observer Z.1 SD microscope (Carl Zeiss, Germany) was used, coupled to an AxioCam MR3, with the Plan Apochromatic 63×/NA 1.4 objective. The images were processed using ImageJ, version 1.51.

[4] = SRB, 48 h, read-out: GI50 HCT116
[5] = Table 2, 48 h, read-out: GI50 HCT116 p53+/+

Structure (SMILES)	GI50 (A375-C5)	GI50 (MCF-7)	GI50 (HCT116 (HCT116 p53+/+); [4])	GI50 (HPAEpiC)	melting point	GI50 [1]	GI50 (HCT116 (HCT116 p53+/+); [5])	SI, selective index (GI50 of HCT116 p53−/−/GI50 of HCT116 p53+/+) (HCT116 p53−/−)	GI50 (HCT116 p53−/−; Homo sapiens, HCT-116, Table 2, 48 h)	Effect on the p53–MDM2 interaction (reversal of the negative growth effect of MDM2 on p53) (p53–MDM2 interaction)	Apoptosis induction (Annexin V-positive cells) (HCT116 cells [2])	Accumulation of bright and rounded (mitotic) cells (HCT116 cells [3])
CCCc1c(OCCNC(=O)c2cc(OC)c(OC)c(OC)c2)ccc(C(=O)/C=C/c2cc(OC)c(OC)c(OC)c2)c1O [Compound 8, (E)-N-(2-(3-hydroxy-2-propyl-4-(3-(3,4,5-trimethoxyphenyl)acryloyl)phenoxy)ethyl)-3,4,5-trimethoxybenzamide]	> 75 µM	> 75 µM	13.5 ± 2.46 µM	> 75 µM	201 to 203 °C							
CCCc1c(OCC(=O)O)ccc(C(=O)/C=C/c2cc(OC)c(OC)c(OC)c2)c1O [Compound 11, (E)-2-(3-hydroxy-2-propyl-4-(3-(3,4,5-trimethoxyphenyl)acryloyl)phenoxy)acetic acid]	29.4 ± 1.05 µM	58.3 ± 8.37 µM	26.9 ± 1.6 µM	> 75 µM	200 to 202 °C	26.9 to 58.3 µM						
CCCc1c(OCC(=O)O)ccc(C(=O)/C=C/c2cc(OC)c(OC)c(OC)c2)c1OCC(=O)O [Compound 12, (E)-2,2’-((2-propyl-4-(3-(3,4,5-trimethoxyphenyl)acryloyl)-1,3-phenylene)bis(oxy))diacetic acid]	> 75 µM	> 75 µM	> 75 µM	> 75 µM	212 to 214 °C	> 75 µM						
CCCc1c(OCC(=O)Nc2cc(OC)c(OC)c(OC)c2)ccc(C(=O)/C=C/c2cc(OC)c(OC)c(OC)c2)c1O [Compound 13, (E)-2-(3-hydroxy-2-propyl-4-(3-(3,4,5-trimethoxyphenyl)acryloyl)phenoxy)-N-(3,4,5-trimethoxyphenyl)acetamide]	9.37 ± 0.9 µM	18.8 ± 3.46 µM	2.66 ± 0.87 µM	10.8 ± 0.23 µM			2.66 ± 0.87 µM	1.54	4.1 ± 0.5 µM	none of the tested compounds significantly reversed the negative inhibitory growth effect of MDM2 on p53	induces apoptotic tumor cell death	not observed
CCCc1c(OCCNC(=O)OC(C)(C)C)ccc2c(=O)cc(-c3cc(OC)c(OC)c(OC)c3)oc12 [Compound 14, tert-butyl (2-((4-oxo-8-propyl-2-(3,4,5-trimethoxyphenyl)-4H-chromen-7-yl)oxy)ethyl)carbamate]	> 75 µM	> 75 µM	> 75 µM	> 75 µM	191 to 193 °C							
CCCc1c(OCCNC(=O)/C=C/c2cc(OC)c(OC)c(OC)c2)ccc2c(=O)cc(-c3cc(OC)c(OC)c(OC)c3)oc12 [Compound 15, (E)-N-(2-((4-oxo-8-propyl-2-(3,4,5-trimethoxyphenyl)-4H-chromen-7-yl)oxy)ethyl)-3-(3,4,5-trimethoxyphenyl)acrylamide]	> 75 µM	> 75 µM	> 75 µM	> 75 µM	198 to 199 °C							
CCCc1c(OCCNC(=O)c2cc(OC)c(OC)c(OC)c2)ccc2c(=O)cc(-c3cc(OC)c(OC)c(OC)c3)oc12 [Compound 16, 3,4,5-trimethoxy-N-(2-((4-oxo-8-propyl-2-(3,4,5-trimethoxyphenyl)-4H-chromen-7-yl)oxy)ethyl)benzamide]	> 75 µM	> 75 µM	28.6 ± 5.05 µM	> 75 µM	196 to 199 °C							
CCCc1c(OCC(=O)Nc2cc(OC)c(OC)c(OC)c2)ccc2c(=O)cc(-c3cc(OC)c(OC)c(OC)c3)oc12 [Compound 17, 2-((4-oxo-8-Propyl-2-(3,4,5-trimethoxyphenyl)-4H-chromen-7-yl)oxy)-N-(3,4,5-trimethoxyphenyl)acetamide]	> 75 µM	> 75 µM	24.7 ± 3.04 µM	> 75 µM	195 to 197 °C							
CCCc1c(OCC(=O)O)ccc2c(=O)cc(-c3cc(OC)c(OC)c(OC)c3)oc12 [Compound 18, 2-((4-oxo-8-propyl-2-(3,4,5-trimethoxyphenyl)-4H-chromen-7-yl)oxy)acetic acid]	> 75 µM	> 75 µM	> 75 µM	> 75 µM								
COc1cccc2c1C(=O)c1c(O)c3c(c(O)c1C2=O)C[C@@](O)(C(=O)CO)C[C@@H]3O[C@H]1C[C@H](N)[C@H](O)[C@H](C)O1 [Doxorubicin, reference compound]	0.028 ± 0.002 µM	0.083 ± 0.003 µM	0.085 ± 0.008 µM	0.091 ± 0.013 µM								
COc1cc([C@@H]2c3cc4c(cc3[C@@H](O[C@@H]3O[C@@H]5CO[C@@H](C)O[C@H]5[C@H](O)[C@H]3O)[C@H]3COC(=O)[C@H]23)OCO4)cc(OC)c1O [Etoposide, reference compound]							0.71 µM					
